What was measured:
DRG explants = assay: DRG explant neurite outgrowth with anti-NGF neutralizing antibodies or MEK1 inhibitor; format: cell-based, C57B1/6 mice; settings: DRGs cultured in 1 μM GM-284 plus inhibitor
Experimental: (A) DRGs were prepared and cultured as above, except that either the MEK1 inhibitor, PD 098059, or NGF-neutralizing antibodies were included in cultures treated with either NGF or GM-284. Maximal response was determined to be the extent of neurite outgrowth when DRGs were cultured in NGF alone (spotted bars) or in 1 μM GM-284 (striped bars). As indicated, DRGs were treated with either NGF or GM-284, in the presence of either 0.25 mg/ml anti-NGF neutralizing antibodies or PD 098059. […] DRGs were treated with 100 ng/ml NGF or 1 μM GM-284, for 30 min or 4 h, as indicated, and the detergent lysates were prepared and immunoblotted with anti-phospho-Erk monoclonal antibody. The p42 and p44 bands are indicated by arrowheads.
Explanted DRG ganglia were dissected from P1 to P3 C57B1/6 mice, as previously described (Weinstein et al., Targeted expression of an oncogenic adaptor protein v-Crk potentiates axonal growth in dorsal root ganglia and motor neurons in vivo. Brain Res. Dev. Brain Res., 116:29-39, 1999). Briefly, DRGs were dissected and placed in ice-cold PBS containing 2% glucose, then transferred onto polyornithine/laminin-coated tissue culture plates (Biocoat, Becton Dickinson Laboratories) in DMEM-plating medium overnight. The plating medium consisted of Dulbecco's minimal essential plating medium (DMEM) supplemented with 10% fetal calf serum (FCS; Hyclone), 0.6% glucose, 2 mM glutamine, 100 U/ml penicillin, 100 μg/ml streptomycin, and 20 mM HEPES. […] For experiments employing anti-NGF neutralizing antibodies, cultures were incubated with […] anti-NGF antiserum, and replaced every two days. Cultures were kept at 37° C., in 5% CO2, for up to 1 week, at which time the extent of well-defined neurite outgrowth was assessed.
Signaling by the neurotrophins, while mediated by different cell-surface receptors, converges on the extensively studied and well-characterized MAP kinase pathway. […] Therefore, the inventors explored the possibility that GM-284 might signal through NGF directly, or through the MAP kinase cascade. […]

[1] = tested on: PC12 cells co-cultured on monolayers of Schwann cells; assay: GFP-PC12 / Schwann cell co-culture neurite outgrowth; format: cell-based, Sprague-Dawley rats (Schwann cells); settings: GM-284, 48 h
Experimental: Wild-type and TrkA-overexpressing PC12 cells (Hempstead et al., Overexpression of the trk tyrosine kinase rapidly accelerates nerve growth factor-induced differentiation. Neuron, 9:883-96, 1992) were maintained in DMEM supplemented with 10% calf serum and 5% horse serum, the latter of which was also supplemented with 200 μg/ml G418 to maintain TrkA selection. Cultures were treated with 100 ng/ml NGF or the immunophilin ligands, or treated with Schwann-cell-conditioned medium supplemented with 5% horse serum, as indicated below. To generate GFP-expressing PC12 cells, a bicistronic pCX-bsr retroviral vector (Escalante et al., Phosphorylation of c-Crk II on the negative regulatory Tyr222 mediates nerve growth factor-induced cell spreading and morphogenesis. J. Biol. Chem., 275:24787-797, 2000), which drives expression of green fluorescent protein (GFP), was used to infect dividing PC12 cells.
GFP-expressing virus was produced by lipofectamine-mediated transfection of 1.0 μg of pCX-bsr DNA, together with 1.0 μg of pC-Eco retroviral DNA, into the Bosc23 replication-incompetent ecotropic packaging line (Retromax™, Imgen), according to the manufacturer's protocols. The transfection medium was replaced with 10 ml of DMEM containing 10% fetal calf serum, for 24 h, and then collected and frozen at −70° C. The cells were re-fed with fresh DMEM (10 ml), and maintained for an additional 16 h. […]

CCC(C)(C)C(=O)C(=O)N1CCC[C@H]1c1nnc([C@@H]2CCCN2C(=O)C(=O)C(C)(C)CC)o1 [GM-284]
effect of anti-NGF / MEK1 inhibition on GM-284-mediated neurite outgrowth (DRG explants): NGF- and MEK1-independent | neuritogenesis of PC12 cells co-cultured with Schwann cells [1]: extensive neuritogenesis
